Test results as given in US20250197372A1 (priority 2020, published 2025).

What was measured:
[1] = biological target: T1, recombinant human GBA (beta-glucocerebrosidase) (Homo sapiens, UniProt P04062); assay: Beta-glucocerebrosidase (GBA, glucosylceramidase) assay (4-methylumbelliferyl-beta-D-pyranoside substrate, fluorescence); assay type: biochemical
T1 sequence (P04062 40-536): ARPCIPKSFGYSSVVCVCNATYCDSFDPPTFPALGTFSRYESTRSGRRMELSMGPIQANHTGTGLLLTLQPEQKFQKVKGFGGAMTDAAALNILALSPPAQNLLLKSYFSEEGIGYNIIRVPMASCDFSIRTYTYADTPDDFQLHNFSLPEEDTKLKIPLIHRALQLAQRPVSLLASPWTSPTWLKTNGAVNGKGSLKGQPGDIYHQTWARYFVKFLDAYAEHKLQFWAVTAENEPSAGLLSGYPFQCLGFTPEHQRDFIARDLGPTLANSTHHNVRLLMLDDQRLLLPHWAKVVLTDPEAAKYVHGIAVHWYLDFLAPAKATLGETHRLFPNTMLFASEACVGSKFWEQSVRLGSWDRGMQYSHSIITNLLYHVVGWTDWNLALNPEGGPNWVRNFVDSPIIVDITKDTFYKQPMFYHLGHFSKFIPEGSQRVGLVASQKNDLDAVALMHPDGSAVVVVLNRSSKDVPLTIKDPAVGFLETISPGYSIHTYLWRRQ
Experimental: Beta-glucocerebrosidase (GBA, also referred to glucosylceramidase): To analyze inhibitory effects of a test compound, commercially available recombinant human GBA was incubated with multiple dilutions of test compound for 60 minutes at 37° C. 4-methylumbelliferyl-beta-D-pyranoside was then introduced to the mixture as substrate. Following incubation for 60 minutes at 37° C., 1,4-methyllumbelliferone was generated, and the reaction was stopped with the stop solution (0.5 M glycine; 0.3 M NaOH, pH 10). 1,4-methyllumbelliferone was detected by fluorescence (excitation at 365 nm, emission at 440 nm). Relative fluorescence compared to untreated enzymatic activity and test compound concentration is then plotted as a function of percent inhibition. The IC50 was determined using a 4-PL curve fit as the measure of relative inhibitory activity of each test compound (see Table 3).

[2] = biological target: rat sucrase (partially purified alpha-glucosidase from intestinal rat powder) (Rattus norvegicus, UniProt P23739); assay: Intestinal alpha-glucosidase assay, sucrose substrate (Glucose GO Kit); assay type: biochemical
Experimental: Intestinal alpha-glucosidases (rat maltase and sucrase): Intestinal alpha-glucosidases act upon 1,4-alpha-glucoside bonds, breaking down disaccharides to glucose. To perform this assay, partially purified alpha-glucosidase from intestinal rat powder was incubated for 60 minutes at 37° C. with multiple dilutions of test compounds. Maltose or Sucrose respectively was then introduced as substrate to the mixture and incubated for 30 minutes at 37° C. The reaction was stopped by a 5-minute incubation at 90° C. and the resultant glucose production is detected using Sigma's Glucose GO Kit. Percent inhibition was then plotted as a function of concentration for each test compound. The IC50 was determined using a 4-PL curve fit and serves as the measure of relative inhibition of each test compound (see Table 3).

Chain of rat sucrase (partially purified alpha-glucosidase from intestinal rat powder) (P23739 whole entry): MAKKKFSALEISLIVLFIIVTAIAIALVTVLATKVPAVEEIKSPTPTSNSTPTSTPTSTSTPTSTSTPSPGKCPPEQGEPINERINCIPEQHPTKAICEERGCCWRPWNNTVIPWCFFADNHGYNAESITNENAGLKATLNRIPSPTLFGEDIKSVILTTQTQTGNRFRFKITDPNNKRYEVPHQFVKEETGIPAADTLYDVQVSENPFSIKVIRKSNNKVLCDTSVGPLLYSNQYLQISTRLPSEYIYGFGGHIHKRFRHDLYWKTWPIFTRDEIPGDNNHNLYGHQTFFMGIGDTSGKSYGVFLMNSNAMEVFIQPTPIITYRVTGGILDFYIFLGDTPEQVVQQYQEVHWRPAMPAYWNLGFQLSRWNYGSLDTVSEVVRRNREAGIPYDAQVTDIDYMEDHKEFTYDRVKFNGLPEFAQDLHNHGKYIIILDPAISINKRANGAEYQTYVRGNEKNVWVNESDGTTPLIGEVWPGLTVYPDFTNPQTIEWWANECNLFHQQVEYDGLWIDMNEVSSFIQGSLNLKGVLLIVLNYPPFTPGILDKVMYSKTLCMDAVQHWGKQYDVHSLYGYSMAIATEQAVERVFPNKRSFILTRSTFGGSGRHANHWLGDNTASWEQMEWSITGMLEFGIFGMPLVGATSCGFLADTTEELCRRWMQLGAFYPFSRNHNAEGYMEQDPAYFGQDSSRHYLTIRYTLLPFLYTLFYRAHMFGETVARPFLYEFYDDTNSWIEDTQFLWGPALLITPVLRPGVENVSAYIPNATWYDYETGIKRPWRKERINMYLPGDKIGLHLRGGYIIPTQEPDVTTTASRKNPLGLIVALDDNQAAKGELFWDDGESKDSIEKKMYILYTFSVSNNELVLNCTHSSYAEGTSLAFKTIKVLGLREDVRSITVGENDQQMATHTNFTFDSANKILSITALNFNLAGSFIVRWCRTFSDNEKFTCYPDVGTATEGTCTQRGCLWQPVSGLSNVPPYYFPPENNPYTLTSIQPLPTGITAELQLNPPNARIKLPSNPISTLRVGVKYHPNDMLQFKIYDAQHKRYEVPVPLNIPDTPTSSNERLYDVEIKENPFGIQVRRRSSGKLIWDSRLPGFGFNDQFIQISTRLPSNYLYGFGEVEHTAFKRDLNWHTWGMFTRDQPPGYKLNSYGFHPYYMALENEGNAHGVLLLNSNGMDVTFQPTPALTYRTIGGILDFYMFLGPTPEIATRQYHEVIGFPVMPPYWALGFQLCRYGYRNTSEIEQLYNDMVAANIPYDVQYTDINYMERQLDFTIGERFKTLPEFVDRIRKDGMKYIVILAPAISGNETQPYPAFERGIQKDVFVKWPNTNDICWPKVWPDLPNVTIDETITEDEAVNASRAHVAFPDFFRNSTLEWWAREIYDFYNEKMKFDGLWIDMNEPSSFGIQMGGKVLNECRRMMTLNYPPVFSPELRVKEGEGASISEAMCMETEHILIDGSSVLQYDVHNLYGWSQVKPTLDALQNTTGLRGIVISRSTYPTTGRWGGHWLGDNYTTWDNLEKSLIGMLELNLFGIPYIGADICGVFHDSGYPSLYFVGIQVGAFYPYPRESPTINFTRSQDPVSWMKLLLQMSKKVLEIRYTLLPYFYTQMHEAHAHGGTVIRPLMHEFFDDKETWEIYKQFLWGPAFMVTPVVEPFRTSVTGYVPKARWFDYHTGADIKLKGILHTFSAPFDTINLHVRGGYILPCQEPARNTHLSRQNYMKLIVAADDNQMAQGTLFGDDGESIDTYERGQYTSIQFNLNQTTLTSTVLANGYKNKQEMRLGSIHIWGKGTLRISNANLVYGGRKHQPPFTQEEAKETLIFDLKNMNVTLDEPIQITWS

SMILES	IC50 [1]	IC50 [2]
Cc1cc(NCc2ccc(CN3C[C@H](O)[C@@H](O)[C@H](O)[C@H]3CO)cc2)cc(-c2cccnn2)c1 [Compound 1052, (2R,3R,4R,5S)-2-(hydroxymethyl)-1-{[4-({[3-methyl-5-(pyridazin-3-yl)phenyl]amino}methyl)phenyl]methyl}piperidine-3,4,5-trio]	84500 nM	60 nM
COc1cc(Cc2ccccc2)cc(NCCCCCCN2C[C@H](O)[C@@H](O)[C@H](O)[C@H]2CO)c1 [Compound 1145, (2R,3R,4R,5S)-1-{6-[(3-benzyl-5-methoxyphenyl)amino]hexyl}-2-(hydroxymethyl)piperidine-3,4,5-triol]	458 nM	3 nM
[N-]=[N+]=Nc1ccc(NCCc2cnn(CCN3C[C@H](O)[C@@H](O)[C@H](O)[C@H]3CO)c2)c([N+](=O)[O-])c1 [Compound 1191, (2R,3R,4R,5S)-1-[2-(4-{2-[(4-azido-2-nitrophenyl)amino]ethyl}-1H-pyrazol-1-yl)ethyl]-2-(hydroxymethyl)piperidine-3,4,5-triol]	28600 nM	2010 nM
[N-]=[N+]=Nc1ccc(NCCc2cncc(CCN3C[C@H](O)[C@@H](O)[C@H](O)[C@H]3CO)n2)c([N+](=O)[O-])c1 [Compound 1187, (2R,3R,4R,5S)-1-[2-(6-{2-[(4-azido-2-nitrophenyl)amino]ethyl}pyrazin-2-yl)ethyl]-2-(hydroxymethyl)piperidine-3,4,5-triol]	16400 nM	2050 nM
COc1cc(NCCCCCCN2C[C@H](O)[C@@H](O)[C@H](O)[C@H]2CO)cc(C2=CCCCC2)c1 [Compound 1149, (2R,3R,4R,5S)-1-(6-{[3-(cyclohex-1-en-1-yl)-5-methoxy-phenyl]amino}hexyl)-2-(hydroxymethyl)piperidine-3,4,5-triol]	56 nM	< 1 nM
Cc1cc(NCc2cccc(CN3C[C@H](O)[C@@H](O)[C@H](O)[C@H]3CO)n2)cc(-c2ccc[nH]2)c1 [Compound 1335, (2R,3R,4R,5S)-2-(hydroxymethyl)-1-{[6-({[3-methyl-5-(1H-pyrrol-2-yl)phenyl]amino}methyl)pyridin-2-yl]methyl}piperidine-3,4,5-triol]	21500 nM	321 nM
COc1cc(NCCc2ccc(CCN3C[C@H](O)[C@@H](O)[C@H](O)[C@H]3CO)cc2)cc(C2=COCCO2)c1 [Compound 1155, (2R,3R,4R,5S)-1-{2-[4-(2-{[3-(5,6-dihydro-1,4-dioxin-2-yl)-5-methoxyphenyl]amino}ethyl)phenyl]ethyl}-2-(hydroxymethyl)piperidine-3,4,5-triol]	3540 nM	726 nM
COc1cc(CN2CCCO2)cc(NCCCCCCN2C[C@H](O)[C@@H](O)[C@H](O)[C@H]2CO)c1 [Compound 1182, (2R,3R,4R,5S)-2-(hydroxymethyl)-1-[6-({3-methoxy-5-[(1,2-oxazolidin-2-yl)methyl]phenyl}amino)hexyl]piperidine-3,4,5-triol]	6130 nM	179 nM
OC[C@@H]1[C@@H](O)[C@H](O)[C@@H](O)CN1CCCCCCNc1ccc(-c2ncco2)cc1Cl [Compound 1203, (2R,3R,4R,5S)-1-(6-{[2-chloro-4-(1,3-oxazol-2-yl)phenyl]amino}hexyl)-2-(hydroxymethyl)piperidine-3,4,5-triol]	787 nM	11 nM
CS(=O)(=O)c1cc(NCc2cccc(CN3C[C@H](O)[C@@H](O)[C@H](O)[C@H]3CO)c2)cc(-c2cccnn2)c1 [Compound 1040, (2R,3R,4R,5S)-2-(hydroxymethyl)-1-{[3-({[3-methanesulfonyl-5-(pyridazin-3-yl)phenyl]amino}methyl)phenyl]methyl}piperidine-3,4,5-triol]	> 100000 nM	126 nM
COc1cc(NCCCCCCN2C[C@H](O)[C@@H](O)[C@H](O)[C@H]2CO)cc(C2=CCCO2)c1 [Compound 1147, (2R,3R,4R,5S)-1-(6-{[3-(4,5-dihydrofuran-2-yl)-5-methoxyphenyl]amino}hexyl)-2-(hydroxymethyl)piperidine-3,4,5-triol]	1980 nM	40 nM
OC[C@@H]1[C@@H](O)[C@H](O)[C@@H](O)CN1CCc1ccc(CCNc2cc(Cl)cc(C3=COCCO3)c2)cc1 [Compound 1161, (2R,3R,4R,5S)-1-{2-[4-(2-{[3-chloro-5-(5,6-dihydro-1,4-dioxin-2-yl)phenyl]amino}ethyl)phenyl]ethyl}-2-(hydroxymethyl)piperidine-3,4,5-triol]	2820 nM	740 nM
OC[C@@H]1[C@@H](O)[C@H](O)[C@@H](O)CN1CCCCCCNc1cc(-c2ncccn2)cc(C(F)(F)F)c1 [Compound 1131, (2R,3R,4R,5S)-2-(hydroxymethyl)-1-(6-{[3-(pyrimidin-2-yl)-5-(trifluoromethyl)phenyl]amino}hexyl)piperidine-3,4,5-triol]	308 nM	40 nM
[N-]=[N+]=Nc1ccc(NCCc2cc(CCN3C[C@H](O)[C@@H](O)[C@H](O)[C@H]3CO)ccc2C2CCCCC2)c([N+](=O)[O-])c1 [Compound 1171, (2R,3R,4R,5S)-1-[2-(3-{2-[(4-azido-2-nitrophenyl)amino]ethyl}-4-cyclohexylphenyl)ethyl]-2-(hydroxymethyl)piperidine-3,4,5-triol]	204 nM	10700 nM
[N-]=[N+]=Nc1ccc(NCc2ccc(CN3C[C@H](O)[C@@H](O)[C@H](O)[C@H]3CO)cc2)c([N+](=O)[O-])c1 [Compound 1170, (2R,3R,4R,5S)-1-[(4-{[(4-azido-2-nitrophenyl)amino]methyl}phenyl)methyl]-2-(hydroxymethyl)piperidine-3,4,5-triol]	29900 nM	2 nM
OC[C@@H]1[C@@H](O)[C@H](O)[C@@H](O)CN1CCc1ccc(CCNc2cc(Cl)cc(C3=CCOCC3)c2)cc1 [Compound 1160, (2R,3R,4R,5S)-1-{2-[4-(2-{[3-chloro-5-(3,6-dihydro-2H-pyran-4-yl)phenyl]amino}ethyl)phenyl]ethyl}-2-(hydroxymethyl)piperidine-3,4,5-triol]	1860 nM	931 nM
OC[C@@H]1[C@@H](O)[C@H](O)[C@@H](O)CN1CCc1ccc(CCNc2cc(Cl)cc(-c3ncccn3)c2)cc1 [Compound 1162, (2R,3R,4R,5S)-1-{2-[4-(2-{[3-chloro-5-(pyrimidin-2-yl)phenyl]amino}ethyl)phenyl]ethyl}-2-(hydroxymethyl)piperidine-3,4,5-triol]	2680 nM	476 nM
O=[N+]([O-])c1cc(N2CCOCC2)ccc1NCc1cccc(CN2C[C@H](O)[C@@H](O)[C@H](O)[C@H]2CO)c1 [Compound 1067, (2R,3R,4R,5S)-2-(hydroxymethyl)-1-{[3-({[4-(morpholin-4-yl)-2-nitrophenyl]amino}methyl)phenyl]methyl}piperidine-3,4,5-triol]	3720 nM	80 nM
CCCc1nc(-c2cc(Cl)cc(NCCc3ccc(CCN4C[C@H](O)[C@@H](O)[C@H](O)[C@H]4CO)cc3)c2)no1 [Compound 1123, (2R,3R,4R,5S)-1-{2-[4-(2-{[3-chloro-5-(5-propyl-1,2,4-oxadiazol-3-yl)phenyl]amino}ethyl)phenyl]ethyl}-2-(hydroxymethyl)piperidine-3,4,5-triol]	627 nM	2810 nM
COc1cc(NCCCCCCN2C[C@H](O)[C@@H](O)[C@H](O)[C@H]2CO)cc(-c2ccccc2)c1 [Compound 1150, (2R,3R,4R,5S)-2-(hydroxymethyl)-1-[6-({5-methoxy-[1,1′-biphenyl]-3-yl}amino)hexyl]piperidine-3,4,5-triol]	193 nM	< 1 nM
[N-]=[N+]=Nc1ccc(NCc2cc(CCN3C[C@H](O)[C@@H](O)[C@H](O)[C@H]3CO)cs2)c([N+](=O)[O-])c1 [Compound 1174, (2R,3R,4R,5S)-1-[2-(5-{[(4-azido-2-nitrophenyl)amino]methyl}thiophen-3-yl)ethyl]-2-(hydroxymethyl)piperidine-3,4,5-triol]	805 nM	1 nM
OC[C@@H]1[C@@H](O)[C@H](O)[C@@H](O)CN1CCc1ccc(CCNc2cc(Cl)cc(-c3ccco3)c2)cc1 [Compound 1159, (2R,3R,4R,5S)-1-{2-[4-(2-{[3-chloro-5-(furan-2-yl)phenyl]amino}ethyl)phenyl]ethyl}-2-(hydroxymethyl)piperidine-3,4,5-triol]	1050 nM	847 nM
